Tested on: human T-ALL lines
Test: mRNA levels of target genes (real-time quantitative PCR)
Format: cell-based
Settings: 25 nM
Procedure: Real-Time Quantitative PCR. Total RNA was extracted using AllPrep DNA/RNA/Protein Mini Kit (Qiagen 80004). Normal CD3+ T-cell RNA mixed from healthy donors was purchased from Miltenyi Biotec (130-093-164). cDNA was made using SuperScript III First-Strand (Invitrogen 18080-400). Analysis was performed by ΔΔCt. Applied Biosystems Taqman GeneExpression Assays: human Myc Hs00153408_m1, hsa-miR-19b RT and TM 396, Rnu6b RT and TM 001093, and mouse Myc Mm00487804_m1.
Given the complexity of the RF data analysis, it was important to directly confirm loss of expression for at least some of these proteins. Briefly, immunoblots on JURKAT and KOPT-K1 cells treated with silvestrol (25 nM) and loaded with equal amounts of total protein confirmed dramatic loss of MYC, NOTCH1, BCL2, and CCND3 proteins (FIG. 6A). The effect on MYC was especially striking, it was dose dependent (FIG. 6B), lasted for 48 h, and was also achieved in xenografts in vivo (Figure S6A-B). […] As expected, ACTIN, TUBULIN, and GAPDH were not affected (FIG. 6A). […] The small and significant increase in MYC mRNA levels might be consistent with prior reports of a MYC auto-regulatory mechanism (Penn et al., 1990a; Penn et al., 1990b) (FIG. 6C).
FIG. 6 depicts validation of selected silvestrol targets. A) Immunoblots of lysates from human T-ALL lines treated with silvestrol (25 nM) and probed as indicated. […]

With COC(=O)[C@H]1[C@@H](O)[C@@]2(O)c3c(OC)cc(O[C@@H]4O[C@@H]([C@H](O)CO)CO[C@H]4OC)cc3O[C@@]2(c2ccc(OC)cc2)[C@@H]1c1ccccc1 [silvestrol] the “corresponding mRNA expression” value was “no decrease”.
